Test results as given in patent publication US20240368135A1 (VERTEX PHARMACEUTICALS INCORPORATED, priority 2021, published 2024).
pIC50: −log10 of the molar value.

Target: human NaV 1.8 (Homo sapiens, UniProt Q9Y5Y9)
Assay: E-VIPR assay detecting and measuring NaV inhibition properties
Type: cell-based
Settings: HEK cells expressing truncated human NaV 1.8; no human serum; read-out: IC50 in the E-VIPR Assay
Procedure, shortened: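 Membrane potential was followed by coumarin/oxonol FRET during electrical field stimulation of matrigel-seeded HEK cells carrying truncated human NaV1.8 plus KIR2.1. Dosing used 11 points, 3-fold steps, top 300 nM final, 0.625% DMSO, with or without 25% human serum.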

Chain of human NaV 1.8 (Q9Y5Y9 126-399 limits assumed): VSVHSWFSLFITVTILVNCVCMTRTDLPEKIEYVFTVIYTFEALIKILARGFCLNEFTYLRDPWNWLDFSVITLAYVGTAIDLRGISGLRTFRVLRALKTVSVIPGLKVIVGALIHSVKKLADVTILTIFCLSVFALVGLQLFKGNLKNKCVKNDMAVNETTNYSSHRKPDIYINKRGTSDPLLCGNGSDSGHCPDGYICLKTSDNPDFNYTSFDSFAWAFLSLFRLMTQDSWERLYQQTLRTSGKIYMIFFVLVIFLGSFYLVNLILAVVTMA
Chain of human NaV 1.8 (Q9Y5Y9 660-890 limits assumed): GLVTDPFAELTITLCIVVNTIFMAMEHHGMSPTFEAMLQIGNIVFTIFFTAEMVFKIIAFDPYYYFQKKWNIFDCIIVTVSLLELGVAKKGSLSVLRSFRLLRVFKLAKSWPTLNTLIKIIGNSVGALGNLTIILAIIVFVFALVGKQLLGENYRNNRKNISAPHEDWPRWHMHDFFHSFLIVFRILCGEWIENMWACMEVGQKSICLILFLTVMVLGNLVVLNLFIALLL
Chain of human NaV 1.8 (Q9Y5Y9 1148-1722 limits assumed): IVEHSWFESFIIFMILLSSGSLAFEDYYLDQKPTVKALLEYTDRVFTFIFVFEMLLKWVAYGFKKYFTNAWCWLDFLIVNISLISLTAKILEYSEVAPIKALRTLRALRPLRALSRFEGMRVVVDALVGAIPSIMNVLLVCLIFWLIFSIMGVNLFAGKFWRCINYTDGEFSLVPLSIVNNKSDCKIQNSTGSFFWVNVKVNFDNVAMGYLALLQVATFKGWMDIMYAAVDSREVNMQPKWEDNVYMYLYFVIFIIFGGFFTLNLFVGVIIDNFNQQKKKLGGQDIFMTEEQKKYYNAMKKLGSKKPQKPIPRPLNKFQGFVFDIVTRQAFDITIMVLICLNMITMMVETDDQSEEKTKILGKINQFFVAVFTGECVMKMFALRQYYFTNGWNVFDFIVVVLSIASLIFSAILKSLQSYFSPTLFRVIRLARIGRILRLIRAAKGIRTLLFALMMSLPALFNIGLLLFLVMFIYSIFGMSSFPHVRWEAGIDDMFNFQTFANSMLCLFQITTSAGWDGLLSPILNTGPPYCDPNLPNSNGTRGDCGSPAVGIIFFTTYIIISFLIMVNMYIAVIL

| pIC50 | Structure (SMILES) |
| --- | --- |
| > 8.00 | COc1c([C@H]2[C@H](C(=O)Nc3ccnc(N4C(=O)CN(C)C[C@@H]4CO)c3)O[C@@](C)(C(F)(F)F)[C@H]2C)ccc(F)c1F [Compound 511, (2R,3S,4S,5R)-3-(3,4-difluoro-2-methoxyphenyl)-N-(2-((R)-2-(hydroxymethyl)-4-methyl-6-oxopiperazin-1-yl)pyridin-4-yl)-4,5-dimethyl-5-(trifluoromethyl)tetrahydrofuran-2-carboxamide] |
| > 8.00 | COc1c([C@H]2[C@H](C(=O)Nc3ccnc(N4C(=O)CN(C)C[C@H]4CO)c3)O[C@@](C)(C(F)(F)F)[C@H]2C)ccc(F)c1F [Compound 512, (2R,3S,4S,5R)-3-(3,4-difluoro-2-methoxyphenyl)-N-(2-((S)-2-(hydroxymethyl)-4-methyl-6-oxopiperazin-1-yl)pyridin-4-yl)-4,5-dimethyl-5-(trifluoromethyl)tetrahydrofuran-2-carboxamide] |
| 7.00 to 8.00 | COc1c([C@H]2[C@H](C(=O)Nc3ccnc(N4CCC[C@@H]4CO)c3)O[C@@](C)(C(F)(F)F)[C@H]2C)ccc(F)c1F [Compound 520, (2R,3S,4S,5R)-3-(3,4-difluoro-2-methoxy-phenyl)-N-[2-[(2R)-2-(hydroxymethyl)pyrrolidin-1-yl]-4-pyridyl]-4,5-dimethyl-5-(trifluoromethyl)tetrahydrofuran-2-carboxamide] |
| 7.00 to 8.00 | COc1c([C@H]2[C@H](C(=O)Nc3ccnc(N(C)CCO)c3)O[C@@](C)(C(F)(F)F)[C@H]2C)ccc(F)c1F [Compound 521, (2R,3S,4S,5R)-3-(3,4-difluoro-2-methoxy-phenyl)-N-[2-[2-hydroxyethyl(methyl)amino]-4-pyridyl]-4,5-dimethyl-5-(trifluoromethyl)tetrahydrofuran-2-carboxamide] |
| > 8.00 | COc1c([C@H]2[C@H](C(=O)Nc3ccnc(N(C)C(=O)CN(C)C)c3)O[C@@](C)(C(F)(F)F)[C@H]2C)ccc(F)c1F [Compound 522, (2R,3S,4S,5R)-3-(3,4-difluoro-2-methoxy-phenyl)-N-[2-[[2-(dimethylamino)acetyl]-methyl-amino]-4-pyridyl]-4,5-dimethyl-5-(trifluoromethyl)tetrahydrofuran-2-carboxamide] |
| > 8.00 | COc1c([C@H]2[C@H](C(=O)Nc3ccc(N)nc3)O[C@@](C)(C(F)(F)F)[C@H]2C)ccc(F)c1F [Compound 523, (2R,3S,4S,5R)—N-(6-aminopyridin-3-yl)-3-(3,4-difluoro-2-methoxyphenyl)-4,5-dimethyl-5-(trifluoromethyl)tetrahydrofuran-2-carboxamide] |
| 7.00 to 8.00 | CNc1ccc(NC(=O)[C@@H]2O[C@@](C)(C(F)(F)F)[C@@H](C)[C@H]2c2ccc(F)c(F)c2OC)cn1 [Compound 524, (2R,3S,4S,5R)-3-(3,4-difluoro-2-methoxy-phenyl)-4,5-dimethyl-N-[6-(methylamino)-3-pyridyl]-5-(trifluoromethyl)tetrahydrofuran-2-carboxamide] |
| 7.00 to 8.00 | COc1c([C@H]2[C@H](C(=O)Nc3ccc(NC(C)=O)nc3)O[C@@](C)(C(F)(F)F)[C@H]2C)ccc(F)c1F [Compound 525, (2R,3S,4S,5R)-N-(6-acetamido-3-pyridyl)-3-(3,4-difluoro-2-methoxy-phenyl)-4,5-dimethyl-5-(trifluoromethyl)tetrahydrofuran-2-carboxamide] |
| 7.00 to 8.00 | COc1c([C@H]2[C@H](C(=O)Nc3ccc(NS(C)(=O)=O)nc3)O[C@@](C)(C(F)(F)F)[C@H]2C)ccc(F)c1F [Compound 526, (2R,3S,4S,5R)-3-(3,4-difluoro-2-methoxy-phenyl)-N-[6-(methanesulfonamido)-3-pyridyl]-4,5-dimethyl-5-(trifluoromethyl)tetrahydrofuran-2-carboxamide] |
| 7.00 to 8.00 | COc1c([C@H]2[C@H](C(=O)Nc3cncc(N4C(=O)CN(C)C[C@H]4C)c3)O[C@@](C)(C(F)(F)F)[C@H]2C)ccc(F)c1F [Compound 535, (2R,3S,4S,5R)-3-(3,4-difluoro-2-methoxyphenyl)-N-(5-((R)-2,4-dimethyl-6-oxopiperazin-1-yl)pyridin-3-yl)-4,5-dimethyl-5-(trifluoromethyl)tetrahydrofuran-2-carboxamide] |
| > 8.00 | C[C@H]1[C@@H](c2ccc(F)c(F)c2OCCO)[C@H](C(=O)Nc2ccnc(CO)c2)O[C@@]1(C)C(F)(F)F [Compound 537, (2R,3S,4S,5R)-3-(3,4-difluoro-2-(2-hydroxyethoxy)phenyl)-N-(2-(hydroxymethyl)pyridin-4-yl)-4,5-dimethyl-5-(trifluoromethyl)tetrahydrofuran-2-carboxamide] |
| > 8.00 | Cc1nn(S(C)(=O)=O)cc1NC(=O)[C@@H]1O[C@@](C)(C(F)(F)F)[C@@H](C)[C@H]1c1ccc(F)c(F)c1OCCO [Compound 538, (2R,3S,4S,5R)-3-(3,4-difluoro-2-(2-hydroxyethoxy)phenyl)-4,5-dimethyl-N-(3-methyl-1-(methylsulfonyl)-1H-pyrazol-4-yl)-5-(trifluoromethyl)tetrahydrofuran-2-carboxamide] |
| 7.00 to 8.00 | C[C@H]1[C@@H](c2ccc(F)c(F)c2OCCO)[C@H](C(=O)Nc2ccn(C)c(=O)c2)O[C@@]1(C)C(F)(F)F [Compound 541, (2R,3S,4S,5R)-3-(3,4-difluoro-2-(2-hydroxyethoxy)phenyl)-4,5-dimethyl-N-(1-methyl-2-oxo-1,2-dihydropyridin-4-yl)-5-(trifluoromethyl)tetrahydrofuran-2-carboxamide] |

More lines, now with the values behind:

| Structure (SMILES) | pIC50 |
| --- | --- |
| COc1c([C@H]2[C@H](C(=O)Nc3cc(N4C(=O)CN(C)C[C@H]4C)ncn3)O[C@@](C)(C(F)(F)F)[C@H]2C)ccc(F)c1F [Compound 513] | 7.00 to 8.00 |
| C[C@H]1[C@@H](c2ccc(F)c(F)c2OC(F)F)[C@H](C(=O)Nc2ccnc(N3CCNCC3=O)c2)O[C@@]1(C)C(F)(F)F [Compound 514, (2R,3S,4S,5R)-3-(2-(difluoromethoxy)-3,4-difluorophenyl)-4,5-dimethyl-N-(2-(2-oxopiperazin-1-yl)pyridin-4-yl)-5-(trifluoromethyl)tetrahydrofuran-2-carboxamide] | 7.00 to 8.00 |
| [2H]C([2H])([2H])Oc1c([C@H]2[C@H](C(=O)Nc3ccnc(N4CCNCC4=O)c3)O[C@@](C)(C(F)(F)F)[C@H]2C)ccc(F)c1F [Compound 515, (2R,3S,4S,5R)-3-[3,4-difluoro-2-(trideuteriomethoxy)phenyl]-4,5-dimethyl-N-[2-(2-oxopiperazin-1-yl)-4-pyridyl]-5-(trifluoromethyl)tetrahydrofuran-2-carboxamide] | 7.00 to 8.00 |
| C[C@H]1[C@@H](c2ccc(F)c(F)c2OC(F)F)[C@H](C(=O)Nc2ccnc(N3CCN(C)CC3=O)c2)O[C@@]1(C)C(F)(F)F [Compound 516, (2R,3S,4S,5R)-3-[2-(difluoromethoxy)-3,4-difluoro-phenyl]-4,5-dimethyl-N-[2-(4-methyl-2-oxo-piperazin-1-yl)-4-pyridyl]-5-(trifluoromethyl)tetrahydrofuran-2-carboxamide] | > 8.00 |
| C[C@@H]1CN(C)CC(=O)N1c1cc(NC(=O)[C@@H]2O[C@@](C)(C(F)(F)F)[C@@H](C)[C@H]2c2ccc(F)c(F)c2OC(F)F)ccn1 [Compound 517, (2R,3S,4S,5R)-3-[2-(difluoromethoxy)-3,4-difluoro-phenyl]-N-[2-[(2R)-2,4-dimethyl-6-oxo-piperazin-1-yl]-4-pyridyl]-4,5-dimethyl-5-(trifluoromethyl)tetrahydrofuran-2-carboxamide] | > 8.00 |
| [2H]C([2H])([2H])Oc1c([C@H]2[C@H](C(=O)Nc3ccnc(N4CCN(C)CC4=O)c3)O[C@@](C)(C(F)(F)F)[C@H]2C)ccc(F)c1F [Compound 518, (2R,3S,4S,5R)-3-(3,4-difluoro-2-(methoxy-d3)phenyl)-4,5-dimethyl-N-(2-(4-methyl-2-oxopiperazin-1-yl)pyridin-4-yl)-5-(trifluoromethyl)tetrahydrofuran-2-carboxamide] | > 8.00 |
| [2H]C([2H])([2H])Oc1c([C@H]2[C@H](C(=O)Nc3ccnc(N4C(=O)CN(C)C[C@H]4C)c3)O[C@@](C)(C(F)(F)F)[C@H]2C)ccc(F)c1F [Compound 519, (2R,3S,4S,5R)-3-[3,4-difluoro-2-(trideuteriomethoxy)phenyl]-N-[2-[(2R)-2,4-dimethyl-6-oxo-piperazin-1-yl]-4-pyridyl]-4,5-dimethyl-5-(trifluoromethyl)tetrahydrofuran-2-carboxamide] | > 8.00 |
| Cc1nn(C(F)F)cc1NC(=O)[C@@H]1O[C@@](C)(C(F)(F)F)[C@@H](C)[C@H]1c1ccc(F)c(F)c1OCCO [Compound 536, (2R,3S,4S,5R)-3-(3,4-difluoro-2-(2-hydroxyethoxy)phenyl)-N-(1-(difluoromethyl)-3-methyl-1H-pyrazol-4-yl)-4,5-dimethyl-5-(trifluoromethyl)tetrahydrofuran-2-carboxamide] | > 8.00 |
| C[C@H]1[C@@H](c2ccc(F)c(F)c2OCCO)[C@H](C(=O)Nc2cncnc2)O[C@@]1(C)C(F)(F)F [Compound 539, (2R,3S,4S,5R)-3-(3,4-difluoro-2-(2-hydroxyethoxy)phenyl)-4,5-dimethyl-N-(pyrimidin-5-yl)-5-(trifluoromethyl)tetrahydrofuran-2-carboxamide] | 7.00 to 8.00 |
| C[C@H]1[C@@H](c2ccc(F)c(F)c2OCCO)[C@H](C(=O)Nc2ccnc(C(C)(C)O)c2)O[C@@]1(C)C(F)(F)F [Compound 540, (2R,3S,4S,5R)-3-(3,4-difluoro-2-(2-hydroxyethoxy)phenyl)-N-(2-(2-hydroxypropan-2-yl)pyridin-4-yl)-4,5-dimethyl-5-(trifluoromethyl)tetrahydrofuran-2-carboxamide] | > 8.00 |
| C[C@H]1[C@@H](c2ccc(F)c(F)c2OCCO)[C@H](C(=O)Nc2cnc(N3CCOCC3)nc2)O[C@@]1(C)C(F)(F)F [Compound 542, (2R,3S,4S,5R)-3-(3,4-difluoro-2-(2-hydroxyethoxy)phenyl)-4,5-dimethyl-N-(2-morpholinopyrimidin-5-yl)-5-(trifluoromethyl)tetrahydrofuran-2-carboxamide] | ≤ 6.00 |
